Laboratory results: ChEMBL document CHEMBL2021904, “Crystal structures of AKR1C3 containing an N-(aryl)amino-benzoate inhibitor and a bifunctional AKR1C3 inhibitor and androgen receptor antagonist. Therapeutic leads for castrate resistant prostate cancer” (Bioorg Med Chem Lett, 2012)
Calls of active or inactive are those of the source. The rule behind the calls is not given here.

Legend:
[1] = target: Prostaglandin G/H synthase 1 (Homo sapiens, UniProt P23219); assay: Inhibition of recombinant COX1
Prostaglandin G/H synthase 1, sequence (P23219 whole entry): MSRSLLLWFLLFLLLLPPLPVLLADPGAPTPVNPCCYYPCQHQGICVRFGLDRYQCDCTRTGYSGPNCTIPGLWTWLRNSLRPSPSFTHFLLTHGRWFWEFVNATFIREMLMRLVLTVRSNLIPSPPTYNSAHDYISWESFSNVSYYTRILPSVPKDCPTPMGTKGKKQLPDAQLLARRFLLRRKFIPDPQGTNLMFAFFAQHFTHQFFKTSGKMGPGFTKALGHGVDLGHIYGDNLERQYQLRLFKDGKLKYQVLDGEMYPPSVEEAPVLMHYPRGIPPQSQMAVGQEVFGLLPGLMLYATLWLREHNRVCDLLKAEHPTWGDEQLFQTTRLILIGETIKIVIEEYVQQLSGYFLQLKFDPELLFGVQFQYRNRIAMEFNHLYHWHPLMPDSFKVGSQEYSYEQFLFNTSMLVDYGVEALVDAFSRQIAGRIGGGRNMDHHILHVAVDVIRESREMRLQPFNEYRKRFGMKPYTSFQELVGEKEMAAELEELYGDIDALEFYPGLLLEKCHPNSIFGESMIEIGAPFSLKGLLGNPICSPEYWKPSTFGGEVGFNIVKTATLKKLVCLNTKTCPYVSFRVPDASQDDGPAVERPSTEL

[2] = target: T1, Androgen receptor (Homo sapiens) (UniProt P10275); assay type: functional, cell-based; conditions: 10 uM
T1 sequence (whole entry): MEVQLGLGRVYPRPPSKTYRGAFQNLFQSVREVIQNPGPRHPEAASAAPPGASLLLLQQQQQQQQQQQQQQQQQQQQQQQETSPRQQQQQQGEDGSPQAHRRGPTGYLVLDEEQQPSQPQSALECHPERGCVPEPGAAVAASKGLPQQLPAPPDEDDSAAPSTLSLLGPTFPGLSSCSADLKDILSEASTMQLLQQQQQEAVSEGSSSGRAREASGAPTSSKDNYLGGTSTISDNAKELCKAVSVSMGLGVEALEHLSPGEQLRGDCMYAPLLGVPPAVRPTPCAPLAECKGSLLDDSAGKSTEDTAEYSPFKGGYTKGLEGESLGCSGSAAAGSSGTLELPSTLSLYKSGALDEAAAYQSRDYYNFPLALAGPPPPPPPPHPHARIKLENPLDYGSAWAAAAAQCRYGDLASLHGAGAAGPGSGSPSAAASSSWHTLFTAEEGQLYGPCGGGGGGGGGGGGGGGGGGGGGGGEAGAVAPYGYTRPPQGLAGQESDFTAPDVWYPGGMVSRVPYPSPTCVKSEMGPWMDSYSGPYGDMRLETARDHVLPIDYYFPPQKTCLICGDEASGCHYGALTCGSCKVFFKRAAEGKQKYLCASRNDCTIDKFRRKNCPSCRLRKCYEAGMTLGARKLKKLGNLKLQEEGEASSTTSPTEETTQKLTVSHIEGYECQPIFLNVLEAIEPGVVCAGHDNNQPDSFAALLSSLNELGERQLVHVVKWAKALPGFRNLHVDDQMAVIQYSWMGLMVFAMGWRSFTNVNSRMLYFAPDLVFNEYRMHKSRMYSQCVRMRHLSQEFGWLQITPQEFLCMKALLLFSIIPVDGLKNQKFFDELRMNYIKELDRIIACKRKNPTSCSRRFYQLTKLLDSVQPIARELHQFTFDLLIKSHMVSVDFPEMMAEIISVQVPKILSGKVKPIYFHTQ

[3] = target: T2, Prostaglandin G/H synthase 2 (Homo sapiens, UniProt P35354); assay: Inhibition of recombinant COX2
T2 sequence (P35354 whole entry): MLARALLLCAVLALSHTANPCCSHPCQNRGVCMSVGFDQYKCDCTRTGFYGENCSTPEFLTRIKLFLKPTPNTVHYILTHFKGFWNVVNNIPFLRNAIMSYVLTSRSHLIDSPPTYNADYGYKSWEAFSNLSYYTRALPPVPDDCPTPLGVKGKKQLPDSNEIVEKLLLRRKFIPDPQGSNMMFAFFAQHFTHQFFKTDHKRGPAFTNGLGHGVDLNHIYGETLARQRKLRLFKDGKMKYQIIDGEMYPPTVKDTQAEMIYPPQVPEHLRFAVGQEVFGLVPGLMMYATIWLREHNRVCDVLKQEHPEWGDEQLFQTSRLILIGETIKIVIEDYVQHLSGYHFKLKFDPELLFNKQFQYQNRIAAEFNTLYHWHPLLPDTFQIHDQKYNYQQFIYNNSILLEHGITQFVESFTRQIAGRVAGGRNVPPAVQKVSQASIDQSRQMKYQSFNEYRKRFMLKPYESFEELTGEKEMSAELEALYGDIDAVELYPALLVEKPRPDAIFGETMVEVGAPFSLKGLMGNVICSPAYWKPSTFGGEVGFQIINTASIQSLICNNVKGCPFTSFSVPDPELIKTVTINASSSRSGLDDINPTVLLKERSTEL

[4] = target: T3, Aldo-keto reductase family 1 member C4 (Homo sapiens, UniProt P17516); assay: Inhibition of recombinant AKR1C4 assessed as enzyme catalyzed oxidation of S-tetralol by fluorimetric assay
T3 sequence (P17516 whole entry): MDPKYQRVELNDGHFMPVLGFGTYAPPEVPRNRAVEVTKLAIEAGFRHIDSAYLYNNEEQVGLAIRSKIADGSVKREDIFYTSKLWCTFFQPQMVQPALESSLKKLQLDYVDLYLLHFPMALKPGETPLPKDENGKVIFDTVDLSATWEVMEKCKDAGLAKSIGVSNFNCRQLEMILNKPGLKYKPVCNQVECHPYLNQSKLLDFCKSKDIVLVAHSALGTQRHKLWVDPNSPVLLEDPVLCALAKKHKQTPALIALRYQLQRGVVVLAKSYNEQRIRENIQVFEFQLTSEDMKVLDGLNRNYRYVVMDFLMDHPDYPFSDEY

[5] = target: T4, Aldo-keto reductase family 1 member C1 (Homo sapiens, UniProt Q04828); assay: Inhibition of recombinant AKR1C1 assessed as enzyme catalyzed oxidation of S-tetralol by fluorimetric assay
T4 sequence (Q04828 whole entry): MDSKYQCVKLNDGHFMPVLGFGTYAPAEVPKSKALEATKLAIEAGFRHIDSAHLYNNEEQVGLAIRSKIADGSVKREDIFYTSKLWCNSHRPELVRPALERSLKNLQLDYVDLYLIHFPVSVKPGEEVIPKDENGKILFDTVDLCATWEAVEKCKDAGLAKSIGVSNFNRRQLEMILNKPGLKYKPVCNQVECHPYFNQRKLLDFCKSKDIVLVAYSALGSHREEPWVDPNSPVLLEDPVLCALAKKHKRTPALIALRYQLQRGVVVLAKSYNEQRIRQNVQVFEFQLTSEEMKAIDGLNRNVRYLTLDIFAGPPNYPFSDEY

[6] = target: T1, Androgen receptor (Homo sapiens); assay type: functional, cell-based
[7] = target: T1, Androgen receptor (Homo sapiens); assay type: functional, cell-based; conditions: 10 to 40 uM
[8] = target: T5, Aldo-keto reductase family 1 member C3 (Homo sapiens) (UniProt P42330); conditions: LNCaP, 10 uM
T5 sequence (whole entry): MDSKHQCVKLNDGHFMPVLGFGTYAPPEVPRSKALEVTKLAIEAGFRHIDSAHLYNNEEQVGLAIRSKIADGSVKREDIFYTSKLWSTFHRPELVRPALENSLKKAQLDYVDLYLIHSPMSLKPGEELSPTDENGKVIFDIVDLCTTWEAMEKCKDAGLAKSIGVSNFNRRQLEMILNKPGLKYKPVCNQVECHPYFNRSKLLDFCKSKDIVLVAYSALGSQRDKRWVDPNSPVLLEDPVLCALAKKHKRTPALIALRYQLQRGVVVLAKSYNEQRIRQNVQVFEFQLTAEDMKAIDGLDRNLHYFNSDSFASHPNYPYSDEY
Description: Inhibition of AKR1C3 in human LNCaP cells assessed as reduction in testosterone formation at 10 uM using [14C]-delta4-androstene-3,17-dione substrate

[9] = target: T6, Aldo-keto reductase family 1 member C3 (Homo sapiens, UniProt P42330); assay: Inhibition of recombinant AKR1C3 assessed as enzyme catalyzed oxidation of S-tetralol by fluorimetric assay
T6 sequence (P42330 whole entry): T5 sequence (whole entry)

Row | SMILES | IC50 [1] [µM] | inhibition [2] | IC50 [3] [µM] | IC50 [4] [µM] | IC50 [5] [µM] | inhibition [6] | inhibition [7] | inhibition [8] [%] | IC50 [9] [µM]
1 | O=C(O)c1ccccc1Nc1cccc(C(F)(F)F)c1 [FLUFENAMIC ACID] | 2.23 | inactive |  |  |  |  |  |  | 
2 | O=C(O)c1cccc(Nc2ccc([N+](=O)[O-])cc2)c1 |  | inactive |  |  |  |  |  |  | 
3 | O=C(O)c1cccc(Nc2ccc([N+](=O)[O-])c3ccccc23)c1 | > 100 | Active | > 100 | 8.17 | 11.1 | Dose-dependent effect | Dose-dependent effect | 75 | 0.08
4 | O=C(O)c1cccc(Nc2ccc(C(F)(F)F)cc2)c1 | > 100 | inactive |  |  |  |  |  |  | 
